Patent publication EP0089538A1, “Optically active derivatives of phenoxy-benzoic acid, process for their preparation and their use as herbicides” (BAYER AG, priority 1982, dated 1983)

Tests used:
Assay type in all cases: in vivo
[1] = tested on: Mais; assay: Post-emergence test; conditions: % damage vs untreated control after three weeks
Text: (§1) Post-emergence-Test Lösungsmittel: 5 Gewichtsteile Aceton Emulgator : 1 Gewichtsteil Alkylarylpolyglycolether
(§2) Zur Herstellung einer zweckmäßigen Wirkstoffzubereitung vermischt man 1 Gewichtsteil Wirkstoff mit der angegebenen Menge Lösungsmittel, gibt die angegebene Menge Emulgator zu und verdünnt das Konzentrat mit Wasser auf die gewünschte Konzentration.
(§3) Mit der Wirkstoffzubereitung spritzt man Testpflanzen, welche eine Höhe von 5 - 15 cm haben so, daß die jeweils gewünschten Wirkstoffmengen pro Flächeneinheit ausgebracht werden. Die Konzentration der Spritzbrühe wird so gewählt, daß in 2000 1 Wasser/ha die jeweils gewünschten Wirkstoffmengen ausgebracht werden. Nach drei Wochen wird der Schädigungsgrad der Pflanzen bonitiert in % Schädigung im Vergleich zur Entwicklung der unbehandelten Kontrolle. Es bedeuten: • 0 % = keine Wirkung (wie unbehandelte Kontrolle) 100 % = totale Vernichtung

[2] = tested on: Rüben; assay: Post-emergence test; conditions: % damage vs untreated control after three weeks
Text: as §1, §2, §3

[3] = tested on: Dicotyledoneae; assay: Post-emergence test; conditions: average effect on several dicots, % damage vs untreated control after three weeks
Text: as §1, §2, §3

[4] = tested on: Soja; assay: Post-emergence test; conditions: % damage vs untreated control after three weeks
Text: as §1, §2, §3

[5] = tested on: Monocotyledoneae; assay: Post-emergence test; conditions: average effect on several monocots, % damage vs untreated control after three weeks
Text: as §1, §2, §3

[6] = tested on: Mais; assay: Pre-emergence test; conditions: % damage vs untreated control after three weeks
Text: (§4) Pre-emergence-Test Lösungsmittel: 5 Gewichtsteile Aceton Emulgator: 1 Gewichtsteil Alkylarylpolyglycolether
as §2
(§5) Samen der Testpflanzen werden in normalen Boden ausgesät und nach 24 Stunden mit der Wirkstoffzubereitung begossen. Dabei hält man die Wassermenge pro Flächeneinheit zweckmäßigerweise konstant. Die Wirkstoffkonzentration in der Zubereitung spielt keine Rolle, entscheidend ist nur die Aufwandmenge des Wirkstoffs pro Flächeneinheit. Nach drei Wochen wird der Schädigungsgrad der Pflanzen bonitiert in % Schädigung im Vergleich zur Entwicklung der unbehandelten Kontrolle. Es bedeuten: • 0 % = keine Wirkung (wie unbehandelte Kontrolle) 100 % = totale Vernichtung

[7] = tested on: Rüben; assay: Pre-emergence test; conditions: % damage vs untreated control after three weeks
Text: as §4, §2, §5

[8] = tested on: Dicotyledoneae; assay: Pre-emergence test; conditions: average effect on several dicots, % damage vs untreated control after three weeks
Text: as §4, §2, §5

[9] = tested on: Soja; assay: Pre-emergence test; conditions: % damage vs untreated control after three weeks
Text: as §4, §2, §5

[10] = tested on: Monocotyledoneae; assay: Pre-emergence test; conditions: average effect on several monocots, % damage vs untreated control after three weeks
Text: as §4, §2, §5

[11] = tested on: Testpflanzen; assay: Pre-emergence test, overall comparison with racemates; conditions: compared with the corresponding racemic compounds (A) and (B)
Text: as §4, §2, §5

[12] = tested on: Testpflanzen; assay: Post-emergence test, overall comparison with racemates; conditions: compared with the corresponding racemic compounds (A) and (B)
Text: as §1, §2, §3

Row | SMILES | Wirkung (in %) Mais ([1]; 1 kg/ha) [%] | Wirkung (in %) Rüben ([2]; 1 kg/ha) [%] | Wirkung (in %) Dicotyledoneae ([3]; 1 kg/ha) | Wirkung (in %) Soja ([4]; 1 kg/ha) [%] | Wirkung (in %) Monocotyledoneae ([5]; 1 kg/ha) | Wirkung (in %) Mais ([6]; 1 kg/ha) [%] | Wirkung (in %) Rüben ([7]; 1 kg/ha) [%] | Wirkung (in %) Dicotyledoneae ([8]; 1 kg/ha) | Wirkung (in %) Soja ([9]; 1 kg/ha) [%] | Wirkung (in %) Monocotyledoneae ([10]; 1 kg/ha) | herbizide Wirksamkeit [11] | herbizide Wirksamkeit [12] | further results
1 | CCOC(=O)C(C)OC(=O)c1cc(Oc2ccc(C(F)(F)F)cc2Cl)ccc1[N+](=O)[O-] (racemic) [(B), 5-(2-Chlor-4-trifluormethyl-phenoxy)-2-nitro-benzoesäure-(1-ethoxycarbonylethyl)-ester, reference compound] | 95 | 100 | 99,9% | 99 | 89,1% | 0 | 100 | 81,4% | 0 | 61,4% | – | – | –
2 | CCOC(=O)C(C)OC(=O)c1cc(Oc2c(Cl)cc(C(F)(F)F)cc2Cl)ccc1[N+](=O)[O-] (racemic) [(A), 5-(2,6-Dichlor-4-trifluormethyl-phenoxy)-2-nitro-benzoesäure-(1-ethoxycarbonyl-ethyl)-ester, reference compound] | 95 | 100 | 100% | 100 | 92% | 10 | 100 | 95,6% | 40 | 69,3% | – | – | –
3 | CCOC(=O)[C@H](C)OC(=O)c1cc(Oc2c(Cl)cc(C(F)(F)F)cc2Cl)ccc1[N+](=O)[O-] [(1), 5-(2,6-Dichlor-4-trifluor-methyl-phenoxy)-2-nitrobenzoesäure-(1-ethoxycarbonyl-ethyl)-ester] | – | – | – | – | – | – | – | – | – | – | bessere herbizide Wirksamkeit | bessere herbizide Wirksamkeit | Wirkung (in %) Mais ([1]; 0,45 kg/ha): 95%; Wirkung (in %) Rüben ([2]; 0,45 kg/ha): 100%; Wirkung (in %) Dicotyledoneae ([3]; 0,45 kg/ha): 99,9%; Wirkung (in %) Soja ([4]; 0,45 kg/ha): 100%; Wirkung (in %) Monocotyledoneae ([5]; 0,45 kg/ha): 89,9%; Wirkung (in %) Mais ([6]; 0,45 kg/ha): 0%; Wirkung (in %) Rüben ([7]; 0,45 kg/ha): 99%; Wirkung (in %) Dicotyledoneae ([8]; 0,45 kg/ha): 88,6%; Wirkung (in %) Soja ([9]; 0,45 kg/ha): 10%; Wirkung (in %) Monocotyledoneae ([10]; 0,45 kg/ha): 42,1%
4 | CCOC(=O)[C@H](C)OC(=O)c1cc(Oc2ccc(C(F)(F)F)cc2Cl)ccc1[N+](=O)[O-] [(2), 5-(2-Chlor-4-trifluormethyl-phenoxy)-2-nitro-benzoesäure-(1-ethoxycarbonyl-ethyl)-ester] | – | – | – | – | – | – | – | – | – | – | bessere herbizide Wirksamkeit | bessere herbizide Wirksamkeit | Wirkung (in %) Mais ([1]; 0,51 kg/ha): 100%; Wirkung (in %) Rüben ([2]; 0,51 kg/ha): 100%; Wirkung (in %) Dicotyledoneae ([3]; 0,51 kg/ha): 99,9%; Wirkung (in %) Soja ([4]; 0,51 kg/ha): 99%; Wirkung (in %) Monocotyledoneae ([5]; 0,51 kg/ha): 83,3%; Wirkung (in %) Mais ([6]; 0,51 kg/ha): 0%; Wirkung (in %) Rüben ([7]; 0,51 kg/ha): 99%; Wirkung (in %) Dicotyledoneae ([8]; 0,51 kg/ha): 77,1%; Wirkung (in %) Soja ([9]; 0,51 kg/ha): 0%; Wirkung (in %) Monocotyledoneae ([10]; 0,51 kg/ha): 74,1%
